Patent US20250281629A1, “COMPOSITIONS AND METHODS FOR ANTI-PHOSPHOCHOLINE ACTIVE IMMUNOTHERAPY” (Duke University, priority 2022, published 2025)
Where no end group is shown, it is not given here. C11H22NO6P = phosphorylcholine group attached via 2-methacryloyloxyethyl phosphorylcholine

Tests used:
[1] = system: CD4^+ T-cell depleted mice; experiment: Anti-PC responses in CD4+ T-cell depleted mice; type: in vivo, mouse; details: for anti-PC IgM in the absence of CD4+ T cells: anti-CD4 antibody; for main anti-PC IgG subclass in CD4+ T cell-depleted mice: week 3
Procedure: Detection of Anti-PC Antibody Responses via ELISA. Anti-PC antibody responses in serum collected from the submandibular vein in mice were measured using ELISA. Briefly, plates were coated with 20 μg/mL PC-BSA (Biosearch Technologies, PC-1011-10) in 1×PBS or just 1×PBS at 4° C. overnight. The next day, the plates were washed using 1×PBST (1×PBS with 0.05% Tween 20) and then blocked three times with Superblock blocking buffer solution (Thermo Fisher, 37515). Serum diluted from 1:10^2 to 1:10^5 in 1% BSA in 1×PBST was the added to the plate and allowed to incubate for 2 h at room temperature. Anti-PC IgG was detected using HRP-conjugated Fcγ fragment-specific goat anti-mouse IgG (Jackson Immuno Research, 15-035-071). IgG subclasses and IgM anti-PC antibodies were detected using Southern Biotech HRP-conjugated goat anti-mouse antibodies (IgG1, IgG2b, IgG2c, IgG3, & IgM: 5300-05B). Area under the curve (AUC) measurements were calculated using background-subtracted absorbance values at dilutions from 1:10^2 to 1:10^5. Antibody titers were defined using an absorbance cutoff above background of 0.2 OD, where titer 2 represents an OD value greater than 0.2 at 1:10^2 dilution and so on up to titer 5 at 1:10^5 dilution.
T Cell ELISpot. T-cell responses were measured using ELISpot. Mice were euthanized 6 days after booster immunization and splenocytes were isolated using Lympholyte-M (Cedarlane, c15031). Splenocytes were stimulated with either media (negative control), Concanavalin A (ConA) (Sigma, C5275) (positive control), or PADRE peptide (1 μM) and then plated at 250,000 cells/well on IL-4 and IFN-γ capture antibody-coated 96-well ELISpot plates (Millipore, MSIPS4510). IL-4 (BD, 551878) and IFNγ (BD, 551881) detection antibodies followed by streptavidin-alkaline phosphatase (Mabtech, 3310-0) and Sigmafast BCIP/NBT (Sigma, B5655) were used to develop cell spots. The quantification of cell spots was then outsourced to Zellnet Consulting Services which uses a Zeiss KS ELISPOT reader. ELISpot counts shown represent spot counts after the subtraction of spots in the negative control wells for each sample.
CD4 T cell Depletion. Mice were given 200 μg of either anti-mouse CD4 (InVivoMAb, clone GK1.5, BioXCell, BE0003-1) or isotype control (InVivoMAb rat IgG2b isotype control anti-KLH, clone LTF-2, BioXCell, BE0090) antibodies in 100 μL InVivoPure pH 6.5 dilution buffer (BioXCell, IP0065) via i.p. injection at days −3, −1, 3, 7, 11, 15, and 19. On days 0 and 22, cells from the spleen, draining lymph nodes (axial, brachial, and inguinal), and mesenteric lymph nodes of unimmunized mice were isolated via physical separation using a 70 μm filter in order to verify CD4^+ T-cell depletion (FIGS. 11A-11E, representative flow cytometry shown in FIG. 12). The cells were treated with mouse BD Fc Block (Clone: 2.4G2) (BD Biosciences, 553142) in flow buffer on ice for 30 min and then washed and stained with antibodies against the following markers: CD4-FITC (Clone: GK1.5) (BD Biosciences, 557307), CD45-PE (Clone: 30-F11) (BioLegend, 103106), CD8a-PE-Cy7 (Clone: 53-6.7 (BD Biosciences, 552877), and CD3e-BV605 (Clone: 145-2C11) (BD Biosciences, 563004) in flow buffer for 30 min on ice. Cells were then washed in flow buffer and stained with DAPI. Flow cytometry was conducted on a BD FACSCanto II cytometer and the results were analyzed using FlowJo software. To determine the importance of PADRE T-cell epitope inclusion in immunizations, anti-CD4 or isotype control antibody-administered mice were immunized on days 0 and 14, with anti-PC antibodies measured at days 0, 7, and 22 via ELISA and T-cell responses measured on day 22 via ELISpot.

[2] = Thioflavin T (ThT) assay for β-sheets; type: physicochemical; details: peak fluorescence intensity around 488 nm
Procedure: Thioflavin T (ThT) Assay. β-sheets were detected by Thioflavin T (ThT) (Alfa Aesar, J61043) binding and resulting fluorescence. 180 μL of 0.05 mM ThT was added to 20 μL of 2 mM nanofibers in a 96-well black plate and allowed to incubate for 1 min. Fluorescence intensity was then determined using an excitation wavelength of 440 nm and emission wavelengths from 460-600 nm at 5 nm intervals. A peak fluorescence intensity at an emission wavelength around 488 nm is indicative of β-sheets.

[3] = system: dendritic cells (F4/80−CD11c+); experiment: Nanofiber uptake in i.p. lavage cells, flow cytometry: dendritic cells; type: in vivo, mouse; details: 4 hours after i.p. injection of TAMRA-labeled nanofibers
Procedure: (§1) Nanofiber Uptake and Evaluation. The cell types present and their propensity to uptake nanofibers in the i.p. space was tested by injecting mice i.p. with 100 μL of 2 mM TAMRA-labeled fluorescent nanofibers. 4 hours later, mice were euthanized and i.p. lavage was conducted via the injection of 2 mL of cold 1×PBS into the peritoneal cavity and massaging the abdomen for 30 seconds. The solution was then carefully extracted from the i.p. space and the cells were isolated followed by rinsing with ice cold flow buffer (2% heat-inactivated FBS in 1×PBS). The cells present were treated with mouse BD Fc Block (Clone: 2.4G2) (BD Biosciences, 553142) in flow buffer on ice for 30 min and then washed and stained with antibodies against the following markers: CD5-APC (Clone: 53-7.3) (BioLegend, 100626), F4/80-PerCP/Cy5.5 (Clone: BM8) (BioLegend, 123128), CD19-APC/Cy7 (Clone: 6D5) (BioLegend, 115530), CD11c-PE/Cy7 (Clone: N418) (BioLegend, 117318), and CD86-BV605 (Clone: GL1) (BD Biosciences, 2272591) in flow buffer for 30 min on ice. TAMRA-fluorescence as an indication of nanofiber uptake was measured on the PE channel. Cells were then washed in flow buffer and stained with DAPI. Flow cytometry was conducted on a BD FACSCanto II cytometer and the results were analyzed using FlowJo software.

macrophages (F4/80+) = experiment: Nanofiber uptake in i.p. lavage cells, flow cytometry: macrophages; type: in vivo, mouse; details: 4 hours after i.p. injection of TAMRA-labeled nanofibers
Procedure: as §1

B1a cells (CD19+CD5+) = experiment: Nanofiber uptake in i.p. lavage cells, flow cytometry: B1a cells; type: in vivo, mouse
Procedure: as §1

[4] = i.p. day 0 and 14, with PADRE-Q11 and CpG

| Substance | anti-PC IgM, isotype control vs CD4-depleted [1, 4] | total anti-PC IgG production, dependence on CD4+ T cells [1, 4] | anti-PC IgM in the absence of CD4+ T cells [1, 4] | main anti-PC IgG subclass in CD4+ T cell-depleted mice [1] | thioflavin-T binding (β-sheet fibrillar structure) [2] | DCs that acquired nanofibers [3] | macrophages staining positively for nanofibers (macrophages (F4/80+)) | CD86 activation marker on TAMRA+ B1a cells vs non-B1a cells (B1a cells (CD19+CD5+); 4 hours after i.p. injection) | TAMRA MFI of B1a cells (B1a cells (CD19+CD5+); 4 hours after i.p. injection) | B1a cells stained positively for nanofibers (B1a cells (CD19+CD5+); 4 hours after i.p. injection of TAMRA-labeled nanofibers) | B1a cells among total TAMRA+ cells (B1a cells (CD19+CD5+); total TAMRA+ cells categorized by cell type) |
| --- | --- | --- | --- | --- | --- | --- | --- | --- | --- | --- | --- |
| (C11H22NO6P)n-CCCCSGSG-QQKFQFQFEQQ-NH2 (CCCCSGSGQQKFQFQFEQQ-NH2; not fully specified; cysteine pairing not given here; also: phosphorylcholine groups (C11H22NO6P) n=1-4, attachment not placed) [PCM-Q11, linear multi-PC conjugate] | significantly greater for PCM-Q11 immunizations when CD4^+ T cells were present | reliant on CD4^+ T cells | generated by both immunizations in the absence of CD4^+ T cells | IgG3 | bound thioflavin-T (ThT) | < 30% | almost all macrophages staining positively for nanofibers | selective elevation on B1a cells | selective uptake | about 75% | acquired by a substantial B1a cell population |
| C11H22NO6P-CSGSG-QQKFQFQFEQQ-NH2 (C(C11H22NO6P)SGSGQQKFQFQFEQQ-NH2) [PC-Q11, phosphodiester PC-Q11] |  | reliant on CD4^+ T cells | generated by both immunizations in the absence of CD4^+ T cells | IgG3 | bound thioflavin-T (ThT) | about 67% | almost all macrophages staining positively for nanofibers | not seen |  |  |  |
